Results taken from ChEMBL document CHEMBL1909046, “DrugMatrix in vitro pharmacology data”.

Legend:
[1] = target: Prostaglandin G/H synthase 1 (Homo sapiens, UniProt P23219); assay: biochemical; assay type: tissue-based, Platelet;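 further: inhibition of COX-1 enzyme activity, with arachidonic acid supplied as substrate; in other assays of this panel Not Active means under 50% inhibition at 10 µM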
Acetylcholinesterase = Acetylcholinesterase (Homo sapiens, UniProt P22303); assay: DRUGMATRIX: Acetylcholinesterase enzyme inhibition (substrate: acetylthiocholine); assay type: cell-based, HEK293; settings: Not Active = under 50% inhibition at 10 µM
Sequence of Acetylcholinesterase (P22303 whole entry): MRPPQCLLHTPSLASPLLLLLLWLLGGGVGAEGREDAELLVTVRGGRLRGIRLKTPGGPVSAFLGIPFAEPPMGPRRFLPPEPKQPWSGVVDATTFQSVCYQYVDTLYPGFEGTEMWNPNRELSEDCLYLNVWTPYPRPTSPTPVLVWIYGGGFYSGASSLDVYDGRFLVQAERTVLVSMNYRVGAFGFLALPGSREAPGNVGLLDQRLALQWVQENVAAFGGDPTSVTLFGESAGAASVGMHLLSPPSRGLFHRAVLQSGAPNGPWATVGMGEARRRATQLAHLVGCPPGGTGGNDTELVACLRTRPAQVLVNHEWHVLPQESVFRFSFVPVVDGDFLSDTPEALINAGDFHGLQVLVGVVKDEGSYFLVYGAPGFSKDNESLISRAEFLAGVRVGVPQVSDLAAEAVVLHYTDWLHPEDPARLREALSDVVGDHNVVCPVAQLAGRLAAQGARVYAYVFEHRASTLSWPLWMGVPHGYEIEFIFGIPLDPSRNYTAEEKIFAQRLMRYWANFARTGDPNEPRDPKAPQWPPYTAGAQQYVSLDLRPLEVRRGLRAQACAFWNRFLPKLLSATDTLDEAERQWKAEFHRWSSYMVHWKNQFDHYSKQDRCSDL

[2] = DRUGMATRIX: Calcium Channel Type L, Phenylalkylamine radioligand binding (ligand: [3H] (-)-Desmethoxyverapamil (D-888)); assay type: cell membranes, Rattus norvegicus, Wistar, Brain, Membrane; settings: Not Active = under 50% inhibition at 10 µM
[3] = target: Delta-type opioid receptor (Homo sapiens, UniProt P41143); assay type: cell membranes, HEK293, Membrane; settings: hek293; further: in other assays of this panel Not Active means under 50% inhibition at 10 µM
Sequence of Delta-type opioid receptor (P41143 whole entry): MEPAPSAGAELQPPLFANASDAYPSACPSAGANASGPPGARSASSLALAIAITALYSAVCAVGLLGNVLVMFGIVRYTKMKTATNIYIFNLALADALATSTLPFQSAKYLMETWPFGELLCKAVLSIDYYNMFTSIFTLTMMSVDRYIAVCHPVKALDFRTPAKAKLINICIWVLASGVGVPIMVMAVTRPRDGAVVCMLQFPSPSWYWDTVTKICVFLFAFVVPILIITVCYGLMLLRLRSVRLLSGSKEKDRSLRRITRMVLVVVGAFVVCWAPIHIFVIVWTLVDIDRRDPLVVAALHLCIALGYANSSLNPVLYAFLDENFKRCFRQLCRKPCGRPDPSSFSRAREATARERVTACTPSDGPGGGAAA

[4] = DRUGMATRIX: ATPase, Na+/K+ enzyme inhibition (substrate: ATP); assay type: tissue-based, Sus scrofa, Heart; settings: Not Active = under 50% inhibition at 10 µM
[5] = target: T1, Type-2 angiotensin II receptor (Homo sapiens, UniProt P50052); assay type: cell-based; settings: cho-k1; further: in other assays of this panel Not Active means under 50% inhibition at 10 µM
T1 sequence (P50052 whole entry): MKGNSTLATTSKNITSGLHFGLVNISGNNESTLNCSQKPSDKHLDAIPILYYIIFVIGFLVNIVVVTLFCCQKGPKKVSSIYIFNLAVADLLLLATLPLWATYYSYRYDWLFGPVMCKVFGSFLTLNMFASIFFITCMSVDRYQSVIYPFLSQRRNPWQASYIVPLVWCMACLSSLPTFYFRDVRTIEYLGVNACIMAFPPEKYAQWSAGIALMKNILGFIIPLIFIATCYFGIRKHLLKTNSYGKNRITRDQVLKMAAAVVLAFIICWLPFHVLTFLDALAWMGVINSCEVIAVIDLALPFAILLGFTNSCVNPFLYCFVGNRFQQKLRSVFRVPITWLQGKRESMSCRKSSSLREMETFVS

Sequence of Prostaglandin G/H synthase 1 (P23219 whole entry): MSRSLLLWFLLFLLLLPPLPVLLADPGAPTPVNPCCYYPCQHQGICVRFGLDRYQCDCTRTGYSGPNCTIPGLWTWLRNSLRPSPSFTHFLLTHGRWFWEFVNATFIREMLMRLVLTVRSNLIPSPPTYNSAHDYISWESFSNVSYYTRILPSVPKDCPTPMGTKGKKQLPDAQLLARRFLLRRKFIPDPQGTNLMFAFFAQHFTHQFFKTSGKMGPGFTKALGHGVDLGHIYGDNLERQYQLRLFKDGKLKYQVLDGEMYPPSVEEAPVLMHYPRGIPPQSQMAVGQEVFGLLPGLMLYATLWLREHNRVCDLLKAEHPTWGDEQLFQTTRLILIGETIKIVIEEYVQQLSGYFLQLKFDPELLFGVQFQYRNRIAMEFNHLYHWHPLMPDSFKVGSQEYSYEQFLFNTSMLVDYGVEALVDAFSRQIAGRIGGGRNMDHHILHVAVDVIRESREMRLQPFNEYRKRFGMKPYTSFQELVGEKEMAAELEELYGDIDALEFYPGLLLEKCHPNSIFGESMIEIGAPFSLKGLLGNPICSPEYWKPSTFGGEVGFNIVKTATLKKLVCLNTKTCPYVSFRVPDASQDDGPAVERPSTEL

| Structure (SMILES) | IC50 ([1]; platelet) | IC50 (Acetylcholinesterase; hek293) | IC50 [2] | Ki [2] | IC50 [3] | IC50 [4] | Ki [4] | IC50 [5] | IC50 ([4]; read-out: IC50) | IC50 (Acetylcholinesterase; read-out: IC50) | IC50 ([2]; read-out: IC50) | Ki ([2]; read-out: Ki) | IC50 ([1]; read-out: IC50) |
| --- | --- | --- | --- | --- | --- | --- | --- | --- | --- | --- | --- | --- | --- |
| CC(=O)OCC(=O)[C@@]1(O)CC[C@H]2[C@@H]3CCC4=CC(=O)CC[C@]4(C)[C@H]3C(=O)C[C@@]21C [CORTISONE ACETATE] | Not Active | Not Active | Not Active | Not Active | Not Active | Not Active | Not Active | Not Active |  |  |  |  |  |
| O=c1ccc2ccccc2o1 [COUMARIN] | Not Active | Not Active | Not Active | Not Active | Not Active | Not Active | Not Active | Not Active |  |  |  |  |  |
| C[C@@H]1C[C@@H]([C@H](O)CC2CC(=O)NC(=O)C2)C(=O)[C@@H](C)C1 [CYCLOHEXIMIDE] | Not Active | Not Active | Not Active | Not Active | Not Active | Not Active | Not Active | Not Active |  |  |  |  |  |
| C/C=C/C[C@@H](C)[C@@H](O)[C@H]1C(=O)N[C@@H](CC)C(=O)N(C)CC(=O)N(C)[C@@H](CC(C)C)C(=O)N[C@@H](C(C)C)C(=O)N(C)[C@@H](CC(C)C)C(=O)N[C@@H](C)C(=O)N[C@H](C)C(=O)N(C)[C@@H](CC(C)C)C(=O)N(C)[C@@H](CC(C)C)C(=O)N(C)[C@@H](C(C)C)C(=O)N1C [CYCLOSPORINE] | Not Active | Not Active | Not Active | Not Active | Not Active | Not Active | Not Active | Not Active |  |  |  |  |  |
| CN(C)/N=N/c1[nH]cnc1C(N)=O [DACARBAZINE] | Not Active | Not Active | Not Active | Not Active | Not Active | Not Active | Not Active | Not Active |  |  |  |  |  |
| COc1ccc2c(c1)[C@]13CCCC[C@@H]1[C@H](C2)N(C)CC3 [DEXTROMETHORPHAN] | Not Active | Not Active | Not Active | Not Active | Not Active | Not Active | Not Active | Not Active |  |  |  |  |  |
| CC(=O)Nc1c(I)c(NC(C)=O)c(I)c(C(=O)O)c1I [DIATRIZOIC ACID] | Not Active | Not Active | Not Active | Not Active | Not Active | Not Active | Not Active | Not Active |  |  |  |  |  |
| COP(=O)(OC)OC=C(Cl)Cl [DICHLORVOS] | Not Active | Not Active | Not Active | Not Active | Not Active | Not Active | Not Active | Not Active |  |  |  |  |  |
| C[C@H]1O[C@@H](O[C@H]2[C@@H](O)C[C@H](O[C@H]3[C@@H](O)C[C@H](O[C@H]4CC[C@@]5(C)[C@H](CC[C@@H]6[C@@H]5CC[C@]5(C)[C@@H](C7=CC(=O)OC7)CC[C@]65O)C4)O[C@@H]3C)O[C@@H]2C)C[C@H](O)[C@@H]1O [DIGITOXIN] | Not Active | Not Active | Not Active | Not Active | Not Active |  |  | Not Active | 0.225 µM |  |  |  |  |
| CCN1CC(CCN2CCOCC2)C(c2ccccc2)(c2ccccc2)C1=O (stereo unspecified) [DOXAPRAM] | Not Active | Not Active | Not Active | Not Active | Not Active | Not Active | Not Active | Not Active |  |  |  |  |  |
| Cn1c(=O)c2c(ncn2CC2OCCO2)n(C)c1=O [DOXOFYLLINE] | Not Active | Not Active | Not Active | Not Active | Not Active | Not Active | Not Active | Not Active |  |  |  |  |  |
| COc1cccc2c1C(=O)c1c(O)c3c(c(O)c1C2=O)C[C@@](O)(C(=O)CO)C[C@@H]3O[C@H]1C[C@H](N)[C@H](O)[C@H](C)O1 [DOXORUBICIN] | Not Active | Not Active | Not Active | Not Active | Not Active | Not Active | Not Active | Not Active |  |  |  |  |  |
| COc1cccc2c1C(=O)c1c(O)c3c(c(O)c1C2=O)C[C@@](O)(C(=O)CO)C[C@@H]3O[C@H]1C[C@H](N)[C@@H](O)[C@H](C)O1 [EPIRUBICIN] | Not Active | Not Active | Not Active | Not Active | Not Active | Not Active | Not Active | Not Active |  |  |  |  |  |
| C[C@]12CC[C@@H]3c4ccc(OC(=O)c5ccccc5)cc4CC[C@H]3[C@@H]1CC[C@@H]2O [ESTRADIOL BENZOATE] | Not Active | Not Active | Not Active | Not Active | Not Active | Not Active | Not Active | Not Active |  |  |  |  |  |
| C[C@]12CC[C@@H]3c4ccc(O)cc4CC[C@H]3[C@@H]1CC[C@@H]2O [ESTRADIOL] | Not Active | Not Active | Not Active | Not Active | Not Active | Not Active | Not Active | Not Active |  |  |  |  |  |
| CC[C@@H](CO)NCCN[C@@H](CC)CO [ETHAMBUTOL] | Not Active | Not Active | Not Active | Not Active | Not Active | Not Active | Not Active | Not Active |  |  |  |  |  |
| CC1(C)O[C@@H]2C[C@H]3[C@@H]4C[C@H](F)C5=CC(=O)C=C[C@]5(C)[C@H]4[C@@H](O)C[C@]3(C)[C@]2(C(=O)CO)O1 [FLUNISOLIDE] | Not Active | Not Active | Not Active | Not Active | Not Active | Not Active | Not Active | Not Active |  |  |  |  |  |
| CC1(C)O[C@@H]2C[C@H]3[C@@H]4C[C@H](F)C5=CC(=O)C=C[C@]5(C)[C@@]4(F)[C@@H](O)C[C@]3(C)[C@]2(C(=O)CO)O1 [FLUOCINOLONE ACETONIDE] | Not Active | Not Active | Not Active | Not Active | Not Active | Not Active | Not Active | Not Active |  |  |  |  |  |
| CC1(C)O[C@@H]2C[C@H]3[C@@H]4C[C@H](F)C5=CC(=O)CC[C@]5(C)[C@H]4[C@@H](O)C[C@]3(C)[C@]2(C(=O)CO)O1 [FLURANDRENOLIDE] | Not Active | Not Active | Not Active | Not Active | Not Active | Not Active | Not Active | Not Active |  |  |  |  |  |
| CN(C)c1ccc(C(=C2C=CC(=[N+](C)C)C=C2)c2ccc(N(C)C)cc2)cc1.[Cl-] [GENTIAN VIOLET] | Not Active |  |  |  | Not Active | Not Active | Not Active | Not Active |  | 5.85 µM | 3.44 µM | 3.35 µM |  |
| Cc1ccc(S(=O)(=O)NC(=O)NN2CC3CCCC3C2)cc1 (stereo unspecified) [GLICLAZIDE] | Not Active | Not Active | Not Active | Not Active | Not Active | Not Active | Not Active | Not Active |  |  |  |  |  |
| NC(=O)NO [HYDROXYUREA] | Not Active | Not Active | Not Active | Not Active | Not Active | Not Active | Not Active | Not Active |  |  |  |  |  |
| Nc1ccn([C@@H]2CS[C@H](CO)O2)c(=O)n1 [LAMIVUDINE] | Not Active | Not Active | Not Active | Not Active | Not Active | Not Active | Not Active | Not Active |  |  |  |  |  |
| O=S(=O)([O-])CCS.[Na+] [MESNA] | Not Active | Not Active | Not Active | Not Active | Not Active | Not Active | Not Active | Not Active |  |  |  |  |  |
| C#C[C@]1(O)CC[C@H]2[C@@H]3CCc4cc(OC)ccc4[C@H]3CC[C@@]21C [MESTRANOL] | Not Active | Not Active | Not Active | Not Active | Not Active | Not Active | Not Active | Not Active |  |  |  |  |  |
| CC(=O)Nc1cccc(O)c1 [METACETAMOL] | Not Active | Not Active | Not Active | Not Active | Not Active | Not Active | Not Active | Not Active |  |  |  |  |  |
| Cc1ncc([N+](=O)[O-])n1CCO [METRONIDAZOLE] | Not Active | Not Active | Not Active | Not Active | Not Active | Not Active | Not Active | Not Active |  |  |  |  |  |
| CC(C)(C(=O)c1cccnc1)c1cccnc1 [METYRAPONE] | Not Active | Not Active | Not Active | Not Active | Not Active | Not Active | Not Active | Not Active |  |  |  |  |  |
| Oc1ccc(OCc2ccccc2)cc1 [MONOBENZONE] |  | Not Active | Not Active | Not Active | Not Active | Not Active | Not Active | Not Active |  |  |  |  | 1.02 µM |
